In patent US20090253712A1, “AQUEOUS SOLVENT SYSTEM FOR SOLUBILIZATION OF AZOLE COMPOUNDS” (SEMMELWEIS EGYETEM, priority 2008, published 2009):
≈ marks a conversion by molar mass, not a printed value. Where two headings read alike, the source gives them in different places. Each block holds one molecule with its values, some of them ahead of it.

Experiments:
[1] = data from U.S. Pat. No. 6,383,471, cited from earlier work
[2] = Solubility tests of active agent in solvent systems; type: physicochemical; settings: for solubility: thermodynamic from solid; for Solubility in the compositions of Table 5 (in words): 3% surfactant, 25% co-solvent and pH adjuster (pH 3.1); for Solubilized miconazole / ketoconazole / itraconazole ± S.D.: Table 5: 1.5% sodium taurocholeate + 1.5% polysorbate 80 + 15% ethanol + 10% propylene glycol + ammonium acetate pH 3.1
Experimental: General example for the solubility tests
Each of the solutions applied in the solubilization tests were prepared as follows (the specific amount of the components comes from the Tables below):
1. 0.05M ammonium acetate (as pH-adjuster) solution was prepared in a volumetric flask and the pH of this solution was set to pH 3.1 with glacial acetic acid.
2. The specific amount of co-solvent was measured into a beaker and the specific amount of the previously prepared 0.05M ammonium acetate solution was added. The pH of this solution was measured and set to pH 3.1 with glacial acetic acid.
3. The specific amount of surfactant was added to the solution.
4. This solvent system was vigorously shaken until complete homogenization of the solution was achieved.
5. Aliquot amount of this solvent system was measured and the specific amount of the active agent was added to the solution.
The Tables below define the composition of each solution tested and the amount of the active agent which could be solubilized by the applied solvent system.
The amount of the co-solvent is given in % by volume and the amount of the surfactant is given in % by weight in each table.

[3] = Stability on dilution with infusions; type: physicochemical; settings: for Concentration of polysorbate 80 necessary to keep miconazole in solution on dilution: co-solvent 20% ethanol + ammonium acetate, pH 3.1, dilution to 200 ml with 5% dextrose or 0.9% sodium chloride infusions
Experimental: A composition called as “concentrate for infusion” should be diluted before administration to patients by a previously determined amount of usual infusion. The usual infusion is chosen preferably from the group of 5% dextrose infusion and 0.9% sodium chloride infusion. It is well known for a skilled person in the art that such a dilute should be stable for at least 48 hours. To reproduce the dilution scheme applied in the case of Monistat® (previously marketed as a concentrate for infusion containing miconazole), one of the compositions of the present invention was diluted with 5% dextrose infusion and 0.9% sodium chloride infusion. Based on the previous results a composition comprising of 0.1% polysorbate 80, 20% ethanol and ammonium acetate pH 3.1 was chosen for further investigation. […]

[4] = 3% polysorbate 80 + 25% ethanol + ammonium acetate pH 3.1, pH 3.1, aqueous with cosolvent or surfactant or cyclodextrin, Table 5: 3% polysorbate 80 + 25% ethanol + ammonium acetate pH 3.1, read-out: Solubilized miconazole / ketoconazole / itraconazole ± S.D.
[5] = aqueous with cosolvent or surfactant or cyclodextrin, Table 5: 1.5% sodium taurocholeate + 1.5% polysorbate 80 + 15% ethanol + 10% PEG 400 + ammonium acetate pH 3.1, read-out: Solubilized miconazole / ketoconazole / itraconazole ± S.D.
[6] = pH 3.1, aqueous with cosolvent or surfactant or cyclodextrin, Table 5: 1.5% sodium taurocholeate + 1.5% polysorbate 80 + 25% ethanol + ammonium acetate pH 3.1, read-out: Solubilized miconazole / ketoconazole / itraconazole ± S.D.
[7] = pH 3.1, aqueous with cosolvent or surfactant or cyclodextrin, Table 5: 3% polysorbate 80 + 15% ethanol + 10% PEG 400 + ammonium acetate pH 3.1, read-out: Solubilized miconazole / ketoconazole / itraconazole ± S.D.
[8] = pH 3.1, aqueous with cosolvent or surfactant or cyclodextrin, Table 5: 3% polysorbate 80 + 15% ethanol + 10% propylene glycol + ammonium acetate pH 3.1, read-out: Solubilized miconazole / ketoconazole / itraconazole ± S.D.

solubility [2, 4]: 0.057 ± 0.005 mg/mL | Solubility in the compositions of Table 5 (in words) [2]: no substantial solubility | Solubilized miconazole / ketoconazole / itraconazole ± S.D. [2]: 0.026 ± 0.001 mg/mL | solubility [2, 5]: 0.04 ± 0.001 mg/mL | solubility [2, 6]: 0.04 ± 0.008 mg/mL | solubility [2, 7]: 0.054 ± 0.002 mg/mL | solubility [2, 8]: 0.04 ± 0.001 mg/mL
Compound: CCC(C)n1ncn(-c2ccc(N3CCN(c4ccc(OCC5COC(Cn6cncn6)(c6ccc(Cl)cc6Cl)O5)cc4)CC3)cc2)c1=O (centres unmarked) [itraconazole]
Solubilized itraconazole ([1]; solvent system of Example 27): 85 mg/mL | Solubilized itraconazole ([1]; solvent system of Example 28): 50 mg/mL | Solubilized itraconazole ([1]; solvent system of Example 29): 50 mg/mL | Solubilized itraconazole ([1]; solvent system of Example 30): 30 mg/mL | Solubilized itraconazole ([1]; solvent system of Example 31): 30 mg/mL

solubility [2, 4]: 139 ± 4.05 mg/mL | Solubility in the compositions of Table 5 (in words) [2]: best solubility | Solubilized miconazole / ketoconazole / itraconazole ± S.D. [2]: 126.54 ± 1.04 mg/mL | solubility [2, 5]: 142 ± 2.85 mg/mL | solubility [2, 6]: 137 ± 8.15 mg/mL | solubility [2, 7]: 140 ± 3.99 mg/mL | solubility [2, 8]: 124.7 ± 1.16 mg/mL
Compound: CC(=O)N1CCN(c2ccc(OCC3COC(Cn4ccnc4)(c4ccc(Cl)cc4Cl)O3)cc2)CC1 (centres unmarked) [ketoconazole]

Concentration of polysorbate 80 necessary to keep miconazole in solution on dilution ([3]; 10 mg/ml miconazole in composition): 0.1%^ | Concentration of polysorbate 80 necessary to keep miconazole in solution on dilution ([3]; 20 mg/ml miconazole in composition): 3% | Concentration of polysorbate 80 necessary to keep miconazole in solution on dilution ([3]; 30 mg/ml miconazole in composition): 3% | Stability of diluted composition ([3]; 10 ml of 0.1% polysorbate 80, 20% ethanol, ammonium acetate pH 3.1 containing 20 mg/ml miconazole, diluted to 200 ml with 5% dextrose or 0.9% sodium chloride infusion): not stable for 48 hours | solubility ([2]; 0.05 M ammonium acetate in water, pH 3.1, aqueous buffer, 0.05 M ammonium acetate pH 3.1 in water, read-out: Solubilized miconazole ± S.D.): 2.24 ± 0.36 mg/mL (≈ 5380 µM) | solubility ([2]; 0.05 M calcium gluconate in water, pH 3.1, aqueous buffer, 0.05 M calcium gluconate pH 3.1 in water, read-out: Solubilized miconazole ± S.D.): 0.65 ± 0.06 mg/mL (≈ 1560 µM) | solubility ([2]; 0.05 M potassium dihydrogen phosphate in water, pH 3.1, aqueous buffer, 0.05 M potassium dihydrogen phosphate pH 3.1 in water, read-out: Solubilized miconazole ± S.D.): 0.77 ± 0.05 mg/mL (≈ 1850 µM) | solubility ([2]; 0.10% polysorbate 80 + 5% ethanol + ammonium acetate pH 3.1, pH 3.1, aqueous with cosolvent or surfactant or cyclodextrin, Table 3: 0.10% polysorbate 80 + 5% ethanol + ammonium acetate pH 3.1, read-out: Solubilized miconazole ± S.D.): 2.39 ± 0.12 mg/mL | solubility ([2]; 0.1% polysorbate 80 + 10% ethanol + ammonium acetate pH 3.1, pH 3.1, aqueous with cosolvent or surfactant or cyclodextrin, Table 3: 0.1% polysorbate 80 + 10% ethanol + ammonium acetate pH 3.1, read-out: Solubilized miconazole ± S.D.): 4.52 ± 0.03 mg/mL | solubility ([2]; 0.1% polysorbate 80 + 15% ethanol + ammonium acetate pH 3.1, pH 3.1, aqueous with cosolvent or surfactant or cyclodextrin, Table 3: 0.1% polysorbate 80 + 15% ethanol + ammonium acetate pH 3.1, read-out: Solubilized miconazole ± S.D.): 10.8 ± 2.84 mg/mL | solubility ([2]; 0.1% polysorbate 80 + 20% ethanol + ammonium acetate pH 3.1, pH 3.1, aqueous with cosolvent or surfactant or cyclodextrin, Table 3: 0.1% polysorbate 80 + 20% ethanol + ammonium acetate pH 3.1, read-out: Solubilized miconazole ± S.D.): 35.1 ± 5.76 mg/mL | solubility ([2]; 0.10% polysorbate 80 + 25% ethanol + ammonium acetate pH 3.1, pH 3.1, aqueous with cosolvent or surfactant or cyclodextrin, Table 2: 0.10% polysorbate 80 + 25% ethanol + ammonium acetate pH 3.1, read-out: Solubilized miconazole ± S.D.): 36 ± 2.09 mg/mL | solubility ([2]; 0.1% polysorbate 80 + 25% ethanol + ammonium acetate pH 3.1, pH 3.1, aqueous with cosolvent or surfactant or cyclodextrin, Table 3: 0.1% polysorbate 80 + 25% ethanol + ammonium acetate pH 3.1, read-out: Solubilized miconazole ± S.D.): 36 ± 1.49 mg/mL | solubility ([2]; 0.25% polysorbate 80 + 25% ethanol + ammonium acetate pH 3.1, pH 3.1, aqueous with cosolvent or surfactant or cyclodextrin, Table 2: 0.25% polysorbate 80 + 25% ethanol + ammonium acetate pH 3.1, read-out: Solubilized miconazole ± S.D.): 34.4 ± 1.51 mg/mL | solubility ([2]; 0.50% polysorbate 80 + 25% ethanol + ammonium acetate pH 3.1, pH 3.1, aqueous with cosolvent or surfactant or cyclodextrin, Table 2: 0.50% polysorbate 80 + 25% ethanol + ammonium acetate pH 3.1, read-out: Solubilized miconazole ± S.D.): 44.72 ± 0.14 mg/mL | solubility ([2]; 1.0% polysorbate 80 + 25% ethanol + ammonium acetate pH 3.1, pH 3.1, aqueous with cosolvent or surfactant or cyclodextrin, Table 2: 1.0% polysorbate 80 + 25% ethanol + ammonium acetate pH 3.1, read-out: Solubilized miconazole ± S.D.): 42.6 ± 2.04 mg/mL | solubility ([2]; 2.0% polysorbate 80 + 25% ethanol + ammonium acetate pH 3.1, pH 3.1, aqueous with cosolvent or surfactant or cyclodextrin, Table 2: 2.0% polysorbate 80 + 25% ethanol + ammonium acetate pH 3.1, read-out: Solubilized miconazole ± S.D.): 37.9 ± 1.86 mg/mL | solubility ([2]; 3% polysorbate 20 in water, aqueous with cosolvent or surfactant or cyclodextrin, 3% polysorbate 20 in water, read-out: Solubilized miconazole ± S.D.): 0.81 ± 0.07 mg/mL (≈ 1950 µM) | solubility ([2]; 3% polysorbate 60 in water, aqueous with cosolvent or surfactant or cyclodextrin, 3% polysorbate 60 in water, read-out: Solubilized miconazole ± S.D.): 1.42 ± 0.1 mg/mL (≈ 3410 µM) | solubility ([2]; 3.0% polysorbate 80 + 25% ethanol + ammonium acetate pH 3.1, pH 3.1, aqueous with cosolvent or surfactant or cyclodextrin, Table 2: 3.0% polysorbate 80 + 25% ethanol + ammonium acetate pH 3.1, read-out: Solubilized miconazole ± S.D.): 38.9 ± 0.61 mg/mL | solubility [2, 4]: 34.1 ± 2.95 mg/mL | solubility ([2]; 3% polysorbate 80 in water, aqueous with cosolvent or surfactant or cyclodextrin, 3% polysorbate 80 in water, read-out: Solubilized miconazole ± S.D.): 1.52 ± 0.09 mg/mL (≈ 3650 µM) | Solubility in the compositions of Table 5 (in words) [2]: remarkable solubility | solubility ([2]; 4.0% polysorbate 80 + 25% ethanol + ammonium acetate pH 3.1, pH 3.1, aqueous with cosolvent or surfactant or cyclodextrin, Table 2: 4.0% polysorbate 80 + 25% ethanol + ammonium acetate pH 3.1, read-out: Solubilized miconazole ± S.D.): 43.3 ± 2.61 mg/mL | solubility ([2]; 5.0% polysorbate 80 + 25% ethanol + ammonium acetate pH 3.1, pH 3.1, aqueous with cosolvent or surfactant or cyclodextrin, Table 2: 5.0% polysorbate 80 + 25% ethanol + ammonium acetate pH 3.1, read-out: Solubilized miconazole ± S.D.): 42.7 ± 0.81 mg/mL | solubility ([2]; 25% ethanol in water, aqueous with cosolvent or surfactant or cyclodextrin, 25% ethanol in water, read-out: Solubilized miconazole ± S.D.): 0.021 ± 0.01 mg/mL (≈ 50.5 µM) | solubility ([2]; 30% glycerol in water, aqueous with cosolvent or surfactant or cyclodextrin, 30% glycerol in water, read-out: Solubilized miconazole ± S.D.): 0.024 ± 0.006 mg/mL (≈ 57.7 µM) | solubility ([2]; 30% macrogol 400 in water, aqueous with cosolvent or surfactant or cyclodextrin, 30% macrogol 400 in water, read-out: Solubilized miconazole ± S.D.): 0.022 ± 0.008 mg/mL (≈ 52.9 µM) | solubility ([2]; 60% propylene glycol in water, aqueous with cosolvent or surfactant or cyclodextrin, 60% propylene glycol in water, read-out: Solubilized miconazole ± S.D.): 0.36 ± 0.12 mg/mL (≈ 865 µM) | Solubilized miconazole / ketoconazole / itraconazole ± S.D. [2]: 38.38 ± 1.53 mg/mL | solubility [2, 5]: 34.8 ± 2.36 mg/mL | solubility [2, 6]: 32.1 ± 2.86 mg/mL | solubility [2, 7]: 22 ± 1.62 mg/mL | solubility [2, 8]: 10.7 ± 0.69 mg/mL
Compound: Clc1ccc(COC(Cn2ccnc2)c2ccc(Cl)cc2Cl)c(Cl)c1 (centres unmarked) [miconazole]
